Results: patent publication US20210007351A1 (priority 2018, published 2021)

Test system: Phytophthora infestans Genotype 13_A2
Assay type: cell-based
Settings: 0.5%, 1% and 2% (all concentrations) in CMA with 0.5% DMSO; 7 days and 14 days post inoculation; 23 °C

Row | SMILES | average mycelial extension into amended CMA agar (growth)
1 | CC1(C)C2CCC1(C)C(O)C2O (racemic) [(+/−)-exo,exo-2,3-Camphanediol] | heavily reduced or absent altogether
2 | C=CCc1ccc(O)c(OC)c1 [Eugenol, eugenol] | heavily reduced or absent altogether
